Data reported in patent US20260365670A1, “EGFR INHIBITORS AND USES THEREOF” (DIZAL (JIANGSU) PHARMACEUTICAL CO., LTD., priority 2022, published 2026).
Like-named read-outs stand apart in the source and are kept apart here.

Columns and labels:
EGFR wild type = target: T1, EGFR wild type (Homo sapiens, UniProt P00533); assay: Inhibition of EGFR wild type biochemical enzymatic activity (HTRF); conditions: EGFR WT, 1 mM ATP, 1 h, room temperature, read-out: IC50 (nM) @WT
T1 construct: purchased Carna Bio
Summary of the method: (§1)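 1 mM ATP, 1 μM biotin-TK peptide, 5 mM MgCl2, 1 mM MnCl2, 0.01% CHAPS, 1 mM DTT, 0.5% DMSO; 1 h RT; EDTA stop; HTRF 665/615 nm; IC50 via 4PL.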

EGFR L858R = target: T2, EGFR L858R (Homo sapiens, UniProt P00533, L858R); assay: Inhibition of EGFR L858R biochemical enzymatic activity (HTRF); conditions: 1 mM ATP, 1 h, room temperature, read-out: IC50 (nM) @L858R
T2 construct: purchased Carna Bio
T2 sequence (P00533 25-1210 L858R): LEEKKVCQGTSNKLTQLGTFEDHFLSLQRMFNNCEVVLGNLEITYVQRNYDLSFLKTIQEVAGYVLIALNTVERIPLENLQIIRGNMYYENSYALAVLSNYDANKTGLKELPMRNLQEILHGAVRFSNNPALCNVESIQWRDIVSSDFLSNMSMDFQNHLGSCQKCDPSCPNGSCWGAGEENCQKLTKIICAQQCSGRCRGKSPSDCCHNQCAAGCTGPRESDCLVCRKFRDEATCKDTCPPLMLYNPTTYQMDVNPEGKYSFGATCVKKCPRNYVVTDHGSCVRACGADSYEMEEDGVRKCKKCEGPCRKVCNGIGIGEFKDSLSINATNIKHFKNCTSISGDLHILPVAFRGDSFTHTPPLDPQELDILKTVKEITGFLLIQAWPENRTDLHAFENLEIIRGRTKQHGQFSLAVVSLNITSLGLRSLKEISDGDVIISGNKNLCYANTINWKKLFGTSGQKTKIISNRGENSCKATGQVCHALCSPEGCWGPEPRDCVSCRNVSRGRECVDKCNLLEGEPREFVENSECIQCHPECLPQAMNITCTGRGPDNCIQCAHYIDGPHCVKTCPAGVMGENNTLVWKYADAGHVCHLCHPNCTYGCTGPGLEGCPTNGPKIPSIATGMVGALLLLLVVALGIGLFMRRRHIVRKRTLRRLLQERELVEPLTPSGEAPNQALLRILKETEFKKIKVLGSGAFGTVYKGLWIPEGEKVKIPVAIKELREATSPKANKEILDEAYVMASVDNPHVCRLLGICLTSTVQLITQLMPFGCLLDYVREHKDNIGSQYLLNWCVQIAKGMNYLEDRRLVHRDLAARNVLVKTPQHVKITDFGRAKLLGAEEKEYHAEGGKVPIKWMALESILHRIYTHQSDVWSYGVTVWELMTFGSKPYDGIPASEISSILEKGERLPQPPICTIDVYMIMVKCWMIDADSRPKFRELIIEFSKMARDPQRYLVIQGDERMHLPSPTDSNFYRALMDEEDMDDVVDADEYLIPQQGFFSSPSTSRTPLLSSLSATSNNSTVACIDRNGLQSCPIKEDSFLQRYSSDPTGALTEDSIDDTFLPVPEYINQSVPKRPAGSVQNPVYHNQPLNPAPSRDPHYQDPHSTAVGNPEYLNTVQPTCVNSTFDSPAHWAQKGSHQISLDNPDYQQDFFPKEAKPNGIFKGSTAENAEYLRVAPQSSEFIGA
Summary of the method: as §1

EGFR L858R/T790M = target: T3, EGFR L858R/T790M (Homo sapiens, UniProt P00533, L858R/T790M); assay: Inhibition of EGFR L858R/T790M biochemical enzymatic activity (HTRF); conditions: EGFR L858R-T790M, 1 mM ATP, 1 h, room temperature, read-out: IC50 (nM) @L858R-T790M
T3 construct: purchased Carna Bio
Summary of the method: as §1

EGFR Exon19Del = target: T4, EGFR Exon19Del (Homo sapiens, UniProt P00533, DEL746-750); assay: Inhibition of EGFR Exon19Del biochemical enzymatic activity (HTRF); conditions: EGFR Del19, 1 mM ATP, 1 h, room temperature, read-out: IC50 @Del19
T4 construct: purchased Carna Bio
Summary of the method: as §1

EGFR Exon19Del/T790M = target: T5, EGFR Exon19Del/T790M (Homo sapiens, UniProt P00533, DEL746-750/T790M); assay: Inhibition of EGFR Exon19Del/T790M biochemical enzymatic activity (HTRF); conditions: EGFR Del19-T790M, 1 mM ATP, 1 h, room temperature, read-out: IC50 (nM) @Del19-T790M
T5 construct: purchased Carna Bio
T5 sequence (P00533 with tags, fused parts or gaps DEL746-750/T790M limits assumed): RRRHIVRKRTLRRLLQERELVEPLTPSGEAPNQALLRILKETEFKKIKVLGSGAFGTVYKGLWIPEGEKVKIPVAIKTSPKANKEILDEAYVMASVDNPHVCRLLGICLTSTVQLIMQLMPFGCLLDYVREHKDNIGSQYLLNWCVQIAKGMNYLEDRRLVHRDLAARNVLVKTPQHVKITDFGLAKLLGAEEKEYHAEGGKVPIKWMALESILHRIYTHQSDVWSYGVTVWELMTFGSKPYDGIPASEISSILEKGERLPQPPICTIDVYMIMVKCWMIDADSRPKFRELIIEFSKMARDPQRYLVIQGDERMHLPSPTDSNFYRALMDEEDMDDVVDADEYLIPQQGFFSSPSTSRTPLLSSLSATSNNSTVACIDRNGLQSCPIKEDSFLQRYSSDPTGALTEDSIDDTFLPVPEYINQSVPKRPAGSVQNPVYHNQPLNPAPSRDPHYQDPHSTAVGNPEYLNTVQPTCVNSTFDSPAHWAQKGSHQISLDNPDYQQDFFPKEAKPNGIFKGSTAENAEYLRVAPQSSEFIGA
Summary of the method: as §1

EGFR[T790M/C797S/L858R] = target: T6, EGFR[T790M/C797S/L858R] (Homo sapiens, UniProt P00533, C797S/L858R/T790M); assay: Inhibition of EGFR[T790M/C797S/L858R] biochemical enzymatic activity (HTRF); conditions: EGFR T790M-C797S-L858R, 1 mM ATP, 1 h, room temperature, read-out: IC50 (nM) @T790M- C797S - L858R
T6 construct: purchased Carna Bio
T6 sequence (P00533 25-1210 T790M/C797S/L858R): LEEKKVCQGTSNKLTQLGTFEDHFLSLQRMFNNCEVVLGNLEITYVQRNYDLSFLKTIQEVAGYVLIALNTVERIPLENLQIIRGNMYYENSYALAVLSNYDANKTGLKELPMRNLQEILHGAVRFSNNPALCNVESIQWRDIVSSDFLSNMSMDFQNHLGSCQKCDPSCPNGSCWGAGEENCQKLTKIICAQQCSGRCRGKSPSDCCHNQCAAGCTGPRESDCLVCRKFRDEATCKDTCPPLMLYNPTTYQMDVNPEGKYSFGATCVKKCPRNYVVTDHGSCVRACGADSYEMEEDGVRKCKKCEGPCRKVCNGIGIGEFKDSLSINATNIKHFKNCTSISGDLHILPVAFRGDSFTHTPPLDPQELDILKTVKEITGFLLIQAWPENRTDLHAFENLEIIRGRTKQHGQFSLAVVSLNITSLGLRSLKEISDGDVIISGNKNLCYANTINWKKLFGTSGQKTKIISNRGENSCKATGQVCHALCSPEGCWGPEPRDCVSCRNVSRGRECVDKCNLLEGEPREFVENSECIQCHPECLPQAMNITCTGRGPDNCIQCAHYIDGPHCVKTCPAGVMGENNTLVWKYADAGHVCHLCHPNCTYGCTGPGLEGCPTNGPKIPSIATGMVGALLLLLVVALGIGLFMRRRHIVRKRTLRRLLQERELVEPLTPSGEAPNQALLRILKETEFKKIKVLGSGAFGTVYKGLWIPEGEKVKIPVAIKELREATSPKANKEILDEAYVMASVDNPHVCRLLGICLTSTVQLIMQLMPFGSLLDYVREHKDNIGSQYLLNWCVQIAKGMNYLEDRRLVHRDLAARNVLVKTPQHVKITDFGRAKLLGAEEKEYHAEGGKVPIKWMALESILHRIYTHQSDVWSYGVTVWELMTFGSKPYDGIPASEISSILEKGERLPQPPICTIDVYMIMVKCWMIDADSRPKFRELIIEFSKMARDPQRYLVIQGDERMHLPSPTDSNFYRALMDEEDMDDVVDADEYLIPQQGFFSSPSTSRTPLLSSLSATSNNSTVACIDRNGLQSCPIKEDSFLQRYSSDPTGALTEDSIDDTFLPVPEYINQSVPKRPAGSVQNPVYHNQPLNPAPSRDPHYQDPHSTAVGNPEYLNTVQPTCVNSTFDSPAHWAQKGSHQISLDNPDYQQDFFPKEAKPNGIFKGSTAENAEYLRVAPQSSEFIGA
Summary of the method: as §1

[1] = target: T7, EGFR[T790M/C797S/d746-750] (Homo sapiens, UniProt P00533, C797S/DEL746-750/T790M); assay: Inhibition of EGFR[T790M/C797S/d746-750] biochemical enzymatic activity (HTRF); conditions: EGFR T790M-C797S-Del19, 1 mM ATP, 1 h, room temperature, read-out: IC50 (nM) @T790M - C797S - Del19
T7 construct: purchased Carna Bio
T7 sequence (P00533 with tags, fused parts or gaps DEL746-750/T790M/C797S limits assumed): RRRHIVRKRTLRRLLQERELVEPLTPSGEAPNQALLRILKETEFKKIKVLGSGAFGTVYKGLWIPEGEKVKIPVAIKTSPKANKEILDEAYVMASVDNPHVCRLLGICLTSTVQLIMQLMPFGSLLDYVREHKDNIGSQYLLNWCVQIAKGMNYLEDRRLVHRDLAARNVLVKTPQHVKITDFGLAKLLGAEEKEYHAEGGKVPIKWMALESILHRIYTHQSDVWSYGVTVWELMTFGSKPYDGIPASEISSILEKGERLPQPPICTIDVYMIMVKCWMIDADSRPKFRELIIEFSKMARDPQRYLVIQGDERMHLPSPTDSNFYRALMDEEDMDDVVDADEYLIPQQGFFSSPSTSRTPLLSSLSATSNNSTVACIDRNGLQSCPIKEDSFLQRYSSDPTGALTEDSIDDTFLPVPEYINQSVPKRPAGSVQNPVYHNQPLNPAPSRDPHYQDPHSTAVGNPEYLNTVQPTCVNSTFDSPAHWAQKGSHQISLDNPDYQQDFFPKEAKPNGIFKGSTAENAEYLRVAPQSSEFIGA
Summary of the method: as §1

EGFR (d746-750 C797S) = target: T8, EGFR (d746-750 C797S) (Homo sapiens, UniProt P00533, C797S/DEL746-750); assay: Inhibition of EGFR (d746-750 C797S) biochemical enzymatic activity (HTRF); conditions: EGFR Del19-C797S, 1 mM ATP, 1 h, room temperature, read-out: IC50 (nM) @Del19-C797S
T8 construct: purchased signalchem
Summary of the method: as §1

EGFR (C797S L858R) = target: T9, EGFR (C797S L858R) (Homo sapiens, UniProt P00533, C797S/L858R); assay: Inhibition of EGFR (C797S L858R) biochemical enzymatic activity (HTRF); conditions: EGFR L858-C797S, 1 mM ATP, 1 h, room temperature, read-out: IC50 (nM) @L858-C797S
T9 construct: purchased signalchem
T9 sequence (P00533 25-1210 C797S/L858R): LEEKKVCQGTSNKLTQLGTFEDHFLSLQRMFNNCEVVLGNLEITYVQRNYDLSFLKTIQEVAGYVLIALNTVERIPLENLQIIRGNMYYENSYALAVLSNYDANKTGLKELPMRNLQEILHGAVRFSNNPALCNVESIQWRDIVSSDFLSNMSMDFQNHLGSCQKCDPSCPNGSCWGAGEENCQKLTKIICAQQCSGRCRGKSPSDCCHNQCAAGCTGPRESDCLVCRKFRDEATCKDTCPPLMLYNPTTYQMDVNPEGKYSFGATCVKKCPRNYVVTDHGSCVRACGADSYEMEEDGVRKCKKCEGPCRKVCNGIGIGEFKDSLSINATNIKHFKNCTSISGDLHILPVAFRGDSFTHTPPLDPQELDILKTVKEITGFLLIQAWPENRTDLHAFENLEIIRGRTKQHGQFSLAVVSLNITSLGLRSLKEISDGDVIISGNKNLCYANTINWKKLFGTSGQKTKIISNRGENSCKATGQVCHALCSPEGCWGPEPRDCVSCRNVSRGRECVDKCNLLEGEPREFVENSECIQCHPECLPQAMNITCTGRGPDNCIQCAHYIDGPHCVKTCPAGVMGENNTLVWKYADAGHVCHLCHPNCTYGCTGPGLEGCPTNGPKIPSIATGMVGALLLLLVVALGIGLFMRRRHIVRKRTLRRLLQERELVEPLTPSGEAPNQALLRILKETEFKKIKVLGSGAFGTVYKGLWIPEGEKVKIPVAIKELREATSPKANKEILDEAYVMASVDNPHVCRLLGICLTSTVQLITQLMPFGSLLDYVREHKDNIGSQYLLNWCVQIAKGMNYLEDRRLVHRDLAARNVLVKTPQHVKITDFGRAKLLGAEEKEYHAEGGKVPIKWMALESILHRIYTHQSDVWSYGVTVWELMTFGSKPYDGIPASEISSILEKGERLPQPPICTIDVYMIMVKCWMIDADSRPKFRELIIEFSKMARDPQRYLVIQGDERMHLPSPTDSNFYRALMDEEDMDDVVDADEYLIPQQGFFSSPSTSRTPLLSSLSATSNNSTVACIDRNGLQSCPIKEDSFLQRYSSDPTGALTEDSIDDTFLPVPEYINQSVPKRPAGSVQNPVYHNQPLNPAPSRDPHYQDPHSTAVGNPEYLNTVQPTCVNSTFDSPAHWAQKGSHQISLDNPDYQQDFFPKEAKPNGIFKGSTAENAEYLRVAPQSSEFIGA
Summary of the method: as §1

[2] = system: Ba/F3 cells expressing EGFR mutations; assay: Cell proliferation assay, Ba/F3 cells expressing EGFR mutations (CellTiter-Glo, 72 hours); format: cell-based; conditions: CellTiter-Glo
Summary of the method: (§2)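 Ba/F3 cells carrying EGFR mutants (5000/well) or PC-9 cells (500/well) in RPMI1640 were dosed with compound series after overnight attachment and grown 72 h. Viability read by CellTiter-Glo, with day-0 counts subtracted; GI50 from curve fits of % proliferation versus DMSO control.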

PC-9 = assay: Cell proliferation assay, PC-9 cells (CellTiter-Glo, 72 hours); format: cell-based; conditions: PC9 cells, CellTiter-Glo, read-out: PC9 GI50
Summary of the method: as §2

A-431 = assay: Cell proliferation GI50, A-431 cells (Table 6); format: cell-based
[3] = Mus musculus, BaF3, 72 h, BaF3 cells, EGFR DEL19-C797S, read-out: DEL19-C797S/BaF3 GI50
[4] = Mus musculus, BaF3, 72 h, BaF3 cells, EGFR DEL19-T790-C797S, read-out: DEL19-T790-C797S/BaF3 GI50
[5] = Mus musculus, BaF3, 72 h, BaF3 cells, EGFR L858R, read-out: L858R/BaF3 GI50
[6] = Mus musculus, BaF3, 72 h, BaF3 cells, EGFR L858R-C797S, read-out: L858R-C797S/BaF3 GI50
[7] = Mus musculus, BaF3, 72 h, BaF3 cells, EGFR L858R-T790-C797S, read-out: L858R-T790-C797S/BaF3 GI50
[8] = Mus musculus, BaF3, 72 h, BaF3 cells, EGFR L858R-T790M, read-out: L858R-T790M/BaF3 GI50
[9] = Mus musculus, BaF3, 72 h, EGFR DEL19-T790M, read-out: DEL19-T790M GI50
[10] = Homo sapiens, A-431, A-431 cells
[11] = BaF3 cells, EGFR DEL19-C797S, read-out: DEL19-C797S/BaF3 GI50
[12] = BaF3 cells, EGFR DEL19-T790-C797S, read-out: DEL19-T790-C797S/BaF3 GI50
[13] = BaF3 cells, EGFR L858R, read-out: L858R/BaF3 GI50
[14] = BaF3 cells, EGFR L858R-C797S, read-out: L858R-C797S/BaF3 GI50
[15] = BaF3 cells, EGFR L858R-T790-C797S, read-out: L858R-T790-C797S/BaF3 GI50
[16] = BaF3 cells, EGFR L858R-T790M, read-out: L858R-T790M/BaF3 GI50
[17] = EGFR DEL19-T790M, read-out: DEL19-T790M GI50

Compound	IC50 (EGFR wild type) [nM]	IC50 (EGFR L858R) [nM]	IC50 (EGFR L858R/T790M) [nM]	IC50 (EGFR Exon19Del) [nM]	IC50 (EGFR Exon19Del/T790M) [nM]	IC50 (EGFR[T790M/C797S/L858R]) [nM]	IC50 [1] [nM]	IC50 (EGFR (d746-750 C797S)) [nM]	IC50 (EGFR (C797S L858R)) [nM]	GI50 [2, 3] [nM]	GI50 [2, 4] [nM]	GI50 [2, 5] [nM]	GI50 [2, 6] [nM]	GI50 [2, 7] [nM]	GI50 [2, 8] [nM]	GI50 [2, 9] [nM]	GI50 (PC-9; Homo sapiens, PC-9, 72 h) [nM]	GI50 (A-431; [10]) [nM]	other results
CN1CCN(c2ccc3nc4n(c3c2)CC2(CCCOc3c(cnn3C)-c3cc(cn(C)c3=O)C(=O)N4)CC2)CC1 [Example A18, 5′,26′-dimethyl-16′-(4-methylpiperazin-1-yl)-7′-oxa-4′,5′,13′,20′,22′,26′-hexaazaspiro[cyclopropane-1,11′-pentacyclo[22.3.1.0^{2,6}.0^{13,21}.0^{14,19}]octacosan]-1′(28′),2′(6′),3′,14′,16′,18′,20′,24′-octaene-23′,27′-dione]	> 5000	1370	1140	54	41	1720	44	91	929	52.9	246	194	169	309	249	187	565	377	
CC(C)N1CCN(c2ccc3nc4n(c3c2)C[C@H](C)CCCOc2c(cnn2C)-c2cc(cn(C)c2=O)C(=O)N4)CC1 [Example A50]	124	15	6.7	2.4	3.8	4.8	4	1.8	7.4	1	5.3	2.7	2.4	1.9	9.5	7.5	6.3	126	
CCn1ncc2c1OCCC[C@@H](C)Cn1c(nc3ccc(N4CCN(C)CC4)cc31)NC(=O)c1cc-2c(=O)n(C)c1 [Example A21, (11R)-5-ethyl-11,26-dimethyl-16-(4-methylpiperazin-1-yl)-7-oxa-4,5,13,20,22,26-hexaazapentacyclo[22.3.1.0^{2,6}.0^{13,21}.0^{14,19}]octacosa-1(28),2(6),3,14,16,18,20,24-octaene-23,27-dione]	446	37	18	4.6	7.3	7.2	7.1	3.7	15	2.1	22	19	26	7.2	6.7	24	24	1110	
C[C@@H]1CCCOc2c(cnn2C)-c2cc(cn(C)c2=O)C(=O)Nc2nc3ccc(N4CC5(CCN(C)C5)C4)cc3n2C1 [Example A42]	42	8.9	6.8	3	5.4	5.1	4.5	2.5	6.7	0.47	1.8	0.75	2.1	1.6	8.7	2.2	2.5	279	
C[C@@H]1CCCOc2c(cnn2C)-c2cc(cn(C)c2=O)C(=O)Nc2nc3ccc(N4CC5(CN(C)C5)C4)cc3n2C1 [Example A40]	71	11	6.1	4.4	4.5	5.2	4.3	2.3	6.7	1.7	4.2	4	5.4	4.7	17	7.7	17	642	

Continued, in another order:

IC50 (EGFR wild type) [nM]	IC50 (EGFR L858R) [nM]	IC50 (EGFR L858R/T790M) [nM]	IC50 (EGFR Exon19Del) [nM]	IC50 (EGFR Exon19Del/T790M) [nM]	IC50 (EGFR[T790M/C797S/L858R]) [nM]	IC50 [1] [nM]	IC50 (EGFR (d746-750 C797S)) [nM]	IC50 (EGFR (C797S L858R)) [nM]	GI50 [2, 3] [nM]	GI50 [2, 4] [nM]	GI50 [2, 5] [nM]	GI50 [2, 6] [nM]	GI50 [2, 7] [nM]	GI50 [2, 8] [nM]	GI50 [2, 9] [nM]	GI50 (PC-9; Homo sapiens, PC-9, 72 h) [nM]	GI50 (A-431; [10]) [nM]	Compound	other results
83	5	2.8	0.96	2.7	2.3	2.7	0.96	5										Cn1ncc2c1OCCN1CC3CCC(C3)(C1)n1c(nc3ccc(N4CCN(C5CC5)CC4)cc31)NC(=O)c1cc-2c(=O)n(C)c1 (single isomer, unassigned) [Example A83B]	GI50 [2, 11]: 0.7 nM; GI50 [2, 12]: 10 nM; GI50 [2, 13]: 13 nM; GI50 [2, 14]: 8.9 nM; GI50 [2, 15]: 15 nM; GI50 [2, 16]: 25 nM; GI50 [2, 17]: 10 nM; GI50 (PC-9): 20 nM; GI50 (A-431; A-431 cells): 1190 nM
3.6	2	2	1	1.8	1.9	2	0.95	2										CN(C)C1CCN(c2ccc3nc4n(c3c2)C23CCC(CN(CCOc5c(cnn5C)-c5cc(cn(C)c5=O)C(=O)N4)C2)C3)CC1 (single isomer, unassigned) [Example A64B]	GI50 [2, 11]: 0.71 nM; GI50 [2, 12]: 0.92 nM; GI50 [2, 13]: 0.91 nM; GI50 [2, 14]: 1.7 nM; GI50 [2, 15]: 0.79 nM; GI50 [2, 16]: 4.9 nM; GI50 [2, 17]: 1.3 nM; GI50 (PC-9): 3.3 nM; GI50 (A-431; A-431 cells): 973 nM
> 5000	212	7.4	3.5	2.3	3.2	1.8	2.3	47	8.1	58	68	31	57	260	92	128	1410	C[C@@H]1CCCOc2c(cnn2C)-c2cc(cn(C)c2=O)C(=O)Nc2nc3ccc(N4CCN(C)CC4)c(Cl)c3n2C1 [Example A101, (11R)-15-Chloro-5,11,26-trimethyl-16-(4-methylpiperazin-1-yl)-7-oxa-4,5,13,20,22,26-hexaazapentacyclo[22.3.1.0^{2,6}.0^{13,21}.0^{14,19}]octacosa-1(28),2(6),3,14,16,18,20,24-octaene-23,27-dione]	
